The values that follow are results of earlier work, collected in patent US20030167999A1, “Crystal” (priority 2000, published 2003).

Among the targets are wild-type hAR (Homo sapiens, UniProt P10275); hAR mutation F764S (Homo sapiens, UniProt P10275, F765S); hAR M742V (Homo sapiens, UniProt P10275, M743V); hAR M7421 (Homo sapiens, UniProt P10275, M743I); hAR LBD M787V (Homo sapiens, UniProt P10275, M788V).
For the next data set, the target named is T1, wild-type hPR (Homo sapiens, UniProt P06401).
T1 sequence (P06401 1-933): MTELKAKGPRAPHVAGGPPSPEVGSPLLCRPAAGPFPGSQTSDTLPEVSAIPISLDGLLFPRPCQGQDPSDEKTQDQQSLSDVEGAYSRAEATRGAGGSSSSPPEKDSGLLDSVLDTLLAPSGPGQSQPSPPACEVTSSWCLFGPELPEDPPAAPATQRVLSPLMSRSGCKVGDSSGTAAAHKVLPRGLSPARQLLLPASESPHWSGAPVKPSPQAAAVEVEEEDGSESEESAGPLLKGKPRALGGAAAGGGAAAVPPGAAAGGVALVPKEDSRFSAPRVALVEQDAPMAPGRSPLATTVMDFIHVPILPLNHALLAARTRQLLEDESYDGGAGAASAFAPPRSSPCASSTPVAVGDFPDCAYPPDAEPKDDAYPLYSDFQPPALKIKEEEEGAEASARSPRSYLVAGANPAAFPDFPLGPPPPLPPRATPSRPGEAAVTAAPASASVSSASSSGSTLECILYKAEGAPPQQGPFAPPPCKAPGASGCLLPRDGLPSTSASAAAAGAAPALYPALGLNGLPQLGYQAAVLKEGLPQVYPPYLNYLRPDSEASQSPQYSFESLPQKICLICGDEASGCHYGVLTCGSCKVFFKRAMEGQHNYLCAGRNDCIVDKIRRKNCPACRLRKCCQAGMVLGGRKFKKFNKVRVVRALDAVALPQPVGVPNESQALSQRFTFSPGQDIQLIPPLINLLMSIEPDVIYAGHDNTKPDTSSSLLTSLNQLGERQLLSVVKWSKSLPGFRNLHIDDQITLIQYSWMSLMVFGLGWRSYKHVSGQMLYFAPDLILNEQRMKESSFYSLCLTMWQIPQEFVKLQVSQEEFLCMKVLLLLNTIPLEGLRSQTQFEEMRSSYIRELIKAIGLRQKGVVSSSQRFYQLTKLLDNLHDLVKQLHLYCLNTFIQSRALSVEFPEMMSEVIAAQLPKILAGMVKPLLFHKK
Particulars: with respect to progesterone (RBA=100).

The target in data set [1] is AR receptor of LNCaP (T877A) (Homo sapiens, UniProt P10275, T878A). Particulars: single point mutation T877A.
AR receptor of LNCaP (T877A), sequence (P10275 whole entry T878A): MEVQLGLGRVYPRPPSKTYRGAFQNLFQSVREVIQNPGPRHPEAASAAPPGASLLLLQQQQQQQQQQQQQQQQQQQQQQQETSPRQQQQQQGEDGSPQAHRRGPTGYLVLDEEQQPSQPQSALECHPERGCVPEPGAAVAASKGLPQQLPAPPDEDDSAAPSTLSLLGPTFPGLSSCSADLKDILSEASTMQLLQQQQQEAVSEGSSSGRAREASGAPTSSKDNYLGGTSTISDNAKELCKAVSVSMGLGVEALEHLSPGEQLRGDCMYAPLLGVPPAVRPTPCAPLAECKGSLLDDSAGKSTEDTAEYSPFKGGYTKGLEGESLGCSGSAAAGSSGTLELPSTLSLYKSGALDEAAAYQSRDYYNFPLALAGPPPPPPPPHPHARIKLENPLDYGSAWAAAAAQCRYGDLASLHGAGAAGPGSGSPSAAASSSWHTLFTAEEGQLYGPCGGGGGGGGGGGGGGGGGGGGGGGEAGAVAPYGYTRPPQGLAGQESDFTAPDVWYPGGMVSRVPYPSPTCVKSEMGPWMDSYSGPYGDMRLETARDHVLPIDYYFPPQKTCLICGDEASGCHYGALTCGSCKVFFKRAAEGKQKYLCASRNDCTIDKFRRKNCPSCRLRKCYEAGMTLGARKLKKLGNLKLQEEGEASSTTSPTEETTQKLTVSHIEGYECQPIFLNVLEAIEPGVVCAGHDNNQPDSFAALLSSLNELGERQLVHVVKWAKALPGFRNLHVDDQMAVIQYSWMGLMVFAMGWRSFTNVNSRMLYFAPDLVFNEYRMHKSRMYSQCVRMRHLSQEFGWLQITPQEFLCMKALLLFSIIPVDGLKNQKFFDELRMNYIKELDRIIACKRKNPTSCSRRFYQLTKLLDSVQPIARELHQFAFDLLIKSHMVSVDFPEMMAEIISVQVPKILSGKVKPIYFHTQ
The target of the next data set is hAR mutant L707R (Homo sapiens, UniProt P10275, L708R). Particulars: Scatchard plot analysis.
hAR mutant L707R, sequence (P10275 whole entry L708R): as the sequence (P10275 whole entry T878A) above, with L708R, A878T counted along it

hAR M742V, sequence (P10275 whole entry M743V, the tested form may be a part): as the sequence (P10275 whole entry T878A) above, with M743V, A878T counted along it
hAR mutation F764S, sequence (P10275 whole entry F765S, the tested form may be a part): as the sequence (P10275 whole entry T878A) above, with F765S, A878T counted along it
hAR LBD M787V, sequence (P10275 whole entry M788V, the tested form may be a part): as the sequence (P10275 whole entry T878A) above, with M788V, A878T counted along it
wild-type hAR, sequence (P10275 whole entry, the tested form may be a part): as the sequence (P10275 whole entry T878A) above, with A878T counted along it
hAR M7421, sequence (P10275 whole entry M743I, the tested form may be a part): as the sequence (P10275 whole entry T878A) above, with M743I, A878T counted along it

`C[C@]1(O)CC[C@H]2[C@@H]3CCC4=CC(=O)CCC4=C3C=C[C@@]21C` [R1881, metribolone]: the entries for the “relative binding affinity (RBA)” value at wild-type hPR and on wild-type hAR were 190 and 290, respectively. Also, the “R1881 binding versus wild type” value in data set [1] was “identical”. Moreover, on hAR mutant L707R, the binding affinity entry is recorded as “undetectable”. The ligand dissociation entry on hAR mutation F764S is “rapid ligand dissociation”. Further, the “effect of mutation on binding affinity” value on hAR M742V and at hAR M7421 was “dramatically reduce” each time. Also, the binding entry on hAR LBD M787V is on record as “undetectable or strongly reduced”.
